# Values quoted from earlier work, collected in patent publication US4868157A, “Dipeptidyl 2-amino-1,2-dideoxy-D-glucose derivatives as host resistance enhancers in AIDS-immunocompromised hosts and methods of use” (priority 1987, dated 1989).
# Columns and labels:
# [1] = tested on: Mycobacterium aviumintracellulare
# AIDS-related virus = details: for symptoms and/or immune function in patients: ARC or AIDS patients, clinical trials; for viral replication in patients: humans / AIDS patients
# [2] = target: HIV reverse transcriptase (Human immunodeficiency virus type 1 group M subtype B, UniProt P04585)
# [3] = tested on: AIDS-related Kaposi's sarcoma; details: AIDS-related Kaposi's sarcoma cases
compound,measurement,setting,value
"CO[C@H]1/C=C/O[C@@]2(C)Oc3c(C)c(O)c4c(c3C2=O)C2=NC3(CCN(CC(C)C)CC3)NC2=C(NC(=O)/C(C)=C\C=C\[C@H](C)[C@H](O)[C@@H](C)[C@@H](O)[C@@H](C)[C@H](OC(C)=O)[C@@H]1C)C4=O [Ansamycin, rifabutin]",efficacy in AIDS patients with opportunistic Mycobacterium aviumintracellulare infection,[1],some efficacy
CC(C)(N1CC1C#N)N1CC1C(N)=O (stereo not drawn) [Azimexon],symptoms and/or immune function in patients,AIDS-related virus,improvements in symptoms and immune function in patients with ARC but not AIDS
"CC(C)(S)[C@@H](N)C(=O)O [D-Penicillamine, 3-mercapto-D-valine]",T cell levels,"AIDS-related virus; human, in vivo",temporarily depressed T cell levels
same,viral replication in patients,AIDS-related virus,Inhibits HIV reproduction in humans
same,effect on the virus,"AIDS-related virus; trials at George Washington University Medical Center, 13 AIDS patients with perpetually swollen glands",suppressed the virus
"O=C(O)P(=O)(O)O [Foscarnet, trisodium phosphonoformate]",inhibition of HIV reverse transcriptase,[2],Inhibits HIV reverse transcriptase activity in vitro at levels pharmacologically acceptable in vivo
"CC(=O)Nc1ccc(C(=O)O)cc1.CC(=O)Nc1ccc(C(=O)O)cc1.CC(=O)Nc1ccc(C(=O)O)cc1.CC(O)CN(C)C.CC(O)CN(C)C.CC(O)CN(C)C.O=c1[nH]cnc2c1ncn2[C@@H]1O[C@H](CO)[C@@H](O)[C@H]1O [Inosine pranobex, p-Acetamidobenzoic acid salt of (1-dimethylamino-2-propanol:inosinate complex 3:3:1 molar ratio)]",symptoms and/or immune function in patients,AIDS-related virus,improve immune function
"NC(=O)c1ncn([C@@H]2O[C@H](CO)[C@@H](O)[C@H]2O)n1 [Ribavirin, 1-β-D-ribofuranosyl-1,2,4-triazole-3-carboxamide]",tolerability,"24-week trial in 373 ARC patients, at 12 weeks",well tolerated
same,safety profile,"human, in vivo",acceptable
same,symptoms and/or immune function in patients,AIDS-related virus,improved immune function
same,viral replication in patients,AIDS-related virus,inhibited viral replication
Cc1ccc(C(=O)Nc2ccc(S(=O)(=O)O)c3cc(S(=O)(=O)O)cc(S(=O)(=O)O)c23)cc1NC(=O)c1cccc(NC(=O)Nc2cccc(C(=O)Nc3cc(C(=O)Nc4ccc(S(=O)(=O)O)c5cc(S(=O)(=O)O)cc(S(=O)(=O)O)c45)ccc3C)c2)c1 [Suramin],therapeutic benefit / clinical improvement in AIDS patients,AIDS-related virus,little or no evidence of clinical improvement or immunologic recovery
ammonium 21-tungsto-9-antimoniate [HPA-23],therapeutic benefit / clinical improvement in AIDS patients,AIDS-related virus,no therapeutic benefit has been documented
α-Interferon,growth of HIV in vitro,HIV,Checks the growth of HIV in vitro
same,tumor regression,[3],induced tumor regression in some AIDS-related Kaposi's sarcoma cases
